# Test results as given in patent US20230026856A1, “HETEROCYCLIC COMPOUNDS AND METHODS OF USE THEREOF” (SPARCBIO LLC, priority 2020, published 2023).
# Target: KRAS G12C protein (Homo sapiens, UniProt P01116, G12C)
# Assay: Nucleotide exchange assay, Method III (TR-FRET, association of KRAS G12C with Raf-RBD, SOS1-mediated exchange)
# Type: biochemical
# Conditions: overnight (18 hr) incubation with GDP-bound KRAS G12C
# Procedure: Method III. Inhibition of SOS1-mediated exchange of GDP for GTP on the KRAS G12C protein was measured in a biochemical assay that monitors association of KRAS G12C protein with the Ras-binding domain of Raf (Raf-RBD), where the association is coupled to exchange of GDP to GTP on the KRAS G12C protein. The assay was performed at WuXi AppTec (Shanghai, China). Compounds were serially diluted in 3-fold dilutions to 11 concentrations and spotted into the wells of an assay plate in a total volume of 150 nL DMSO per well. A 2× enzyme mix was prepared by diluting GDP-bound, His-tagged KRAS G12C to 25 nM in assay buffer. 10 μL/well of 2× enzyme mix was added to all wells, and the plate was sealed and incubated overnight (18 hr) at 23° C. 4×SOS1/GDP and 4×SOS1/GTP were prepared in assay buffer. 5 μL/well of 4×SOS1/GDP mix was added to negative control wells, 5 μL/well of 4×SOS1/GTP mix was added to the remaining wells, and the plate was further incubated at 23° C. for 1 hr. Finally, FLAG-tagged Raf-RBD is added to the reaction mixture along with a pair of FRET donor- and acceptor-conjugated antibodies specific for the FLAG-tagged Raf-RBD and His-tagged KRAS G12C proteins. A 4× Raf-RBD/Tb-anti-FLAG/D2-anti-His mix was prepared in assay buffer, and 5 μL/well of the mix was added to all wells, followed by incubation at room temperature for 2 hr. The TR-FRET signals, which increase with association of KRAS G12C and Raf-RBD, were measured on a Perkin Elmer Envision 2104 plate reader, and data were analyzed by non-linear regression to obtain IC50 values for inhibition by compounds. Table 2 includes results of the assay of Method III. ‘+++’ indicates IC50 values ≤300 nM, ‘++’ indicates IC50 values between 300 nM-3 μM, and ‘+’ indicates IC50 values ≥3 μM.
# Chain of KRAS G12C protein (P01116 1-188 isoform P01116-2 G12C): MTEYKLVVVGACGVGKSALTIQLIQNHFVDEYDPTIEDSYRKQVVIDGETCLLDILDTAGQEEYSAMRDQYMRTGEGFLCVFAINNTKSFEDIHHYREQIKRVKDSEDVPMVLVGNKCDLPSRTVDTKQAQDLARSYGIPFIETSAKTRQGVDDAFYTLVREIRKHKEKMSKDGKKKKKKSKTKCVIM
row,SMILES,IC50
1,"C=CC(=O)N1CCC(c2c(C(=O)NC)c(=O)n(-c3c(C)ccnc3C(C)C)c3nc(-c4c(O)cccc4F)c(F)cc23)CC1 (single isomer, unassigned) [68 (Isomer A), 4-(1-acryloylpiperidin-4-yl)-6-fluoro-7-(2-fluoro-6-hydroxyphenyl)-1-(2-isopropyl-4-methylpyridin-3-yl)-N-methyl-2-oxo-1,2-dihydro-1,8-naphthyridine-3-carboxamide]",300 to 3000 nM
2,"C=CC(=O)N1CCN(c2c(S(C)(=O)=O)c(=O)n(-c3c(C)ccnc3C(C)C)c3c(F)c(-c4c(O)cccc4F)c(Cl)cc23)CC1 (single isomer, unassigned) [176 (Isomer C), 4-(4-acryloylpiperazin-1-yl)-6-chloro-8-fluoro-7-(2-fluoro-6-hydroxyphenyl)-1-(2-isopropyl-4-methylpyridin-3-yl)-3-(methylsulfonyl)quinolin-2(1H)-one]",300 to 3000 nM
3,"C=CC(=O)N1CCN(c2c(C(=O)NC)c(=O)n(-c3c(C)ccnc3C(C)C)c3nc(-c4cccc5sc(N)nc45)c(F)cc23)CC1 (single isomer, unassigned) [254 (Isomer B), 4-(4-acryloylpiperazin-1-yl)-7-(2-aminobenzo[d]thiazol-4-yl)-6-fluoro-1-(2-isopropyl-4-methylpyridin-3-yl)-N-methyl-2-oxo-1,2-dihydro-1,8-naphthyridine-3-carboxamide]",≤ 300 nM
4,"C=CC(=O)N1CCC(n2c(=O)c(=O)n(-c3c(C)ccnc3C(C)C)c3nc(-c4c(O)cccc4F)c(F)cc32)C[C@@H]1C (single isomer, unassigned) [4 (Isomer B)]",≥ 3000 nM
5,"C=CC(=O)N1CCC(c2c(C(=O)NC)c(=O)n(-c3c(C)ccnc3C(C)C)c3nc(-c4c(O)cccc4F)c(F)cc23)CC1 (single isomer, unassigned) [68 (Isomer B), 4-(1-acryloylpiperidin-4-yl)-6-fluoro-7-(2-fluoro-6-hydroxyphenyl)-1-(2-isopropyl-4-methylpyridin-3-yl)-N-methyl-2-oxo-1,2-dihydro-1,8-naphthyridine-3-carboxamide]",≥ 3000 nM
6,"C=CC(=O)N1CCC(n2c(=O)c(=O)n(-c3c(C)ccnc3C(C)C)c3nc(-c4c(O)cccc4F)c(F)cc32)C(C)C1 (single isomer, unassigned) [294 (Isomer E), 1-(1-acryloyl-3-methylpiperidin-4-yl)-7-fluoro-6-(2-fluoro-6-hydroxyphenyl)-4-(2-isopropyl-4-methylpyridin-3-yl)-1,4-dihydropyrido[2,3-b]pyrazine-2,3-dione]",≥ 3000 nM
7,"C=CC(=O)N1CCN(c2c(C(=O)NC)c(=O)n(-c3c(C)ccnc3C(C)C)c3nc(-c4c(C)ccc5[nH]ncc45)c(F)cc23)CC1 (single isomer, unassigned) [116 (Isomer B), 4-(4-acryloylpiperazin-1-yl)-6-fluoro-1-(2-isopropyl-4-methylpyridin-3-yl)-N-methyl-7-(5-methyl-1H-indazol-4-yl)-2-oxo-1,2-dihydro-1,8-naphthyridine-3-carboxamide]",300 to 3000 nM
8,"C=CC(=O)N1CCN(c2c(S(C)(=O)=O)c(=O)n(-c3c(C)ccnc3C(C)C)c3nc(-c4c(O)cccc4F)c(F)cc23)C[C@H]1C (single isomer, unassigned) [143 (Isomer A)]",300 to 3000 nM
9,"C=CC(=O)N1CCN(c2c(S(C)(=O)=O)c(=O)n(-c3c(C)ccnc3C(C)C)c3c(F)c(-c4c(C)ccc5[nH]ncc45)c(Cl)cc23)CC1 (single isomer, unassigned) [187 (Isomer A), 4-(4-acryloylpiperazin-1-yl)-6-chloro-8-fluoro-1-(2-isopropyl-4-methylpyridin-3-yl)-7-(5-methyl-1H-indazol-4-yl)-3-(methylsulfonyl)quinolin-2(1H)-one]",300 to 3000 nM
10,"C=CC(=O)N1CCN(c2c(C(=O)NC)c(=O)n(-c3c(C)ccnc3C(C)C)c3nc(-c4c(C)ccc5[nH]ncc45)c(F)cc23)C[C@H]1C (single isomer, unassigned) [114 (Isomer B)]",≤ 300 nM
11,"C=CC(=O)N1CCN(c2c(C(=O)NC)c(=O)n(-c3c(C)ccnc3C(C)C)c3nc(-c4c(C)ccc5[nH]ncc45)c(F)cc23)C[C@H]1C (single isomer, unassigned) [114 (Isomer A)]",300 to 3000 nM
12,"C=CC(=O)N1CCN(c2c(S(C)(=O)=O)c(=O)n(-c3c(C)ccnc3C(C)C)c3nc(-c4c(O)cccc4F)c(F)cc23)C[C@H]1C (single isomer, unassigned) [143 (Isomer B)]",≤ 300 nM
13,"C=CC(=O)N1CCN(c2c(C(=O)NC)c(=O)n(-c3c(C)ccnc3C(C)C)c3nc(-c4cccc5sc(N)nc45)c(F)cc23)C[C@H]1C (single isomer, unassigned) [253 (Isomer A)]",≤ 300 nM
14,"C=CC(=O)N1CCN(c2c(C(=O)NC)c(=O)n(-c3c(C)ccnc3C(C)C)c3nc(-c4c(O)cccc4F)c(F)cc23)[C@@H](C)C1 (single isomer, unassigned) [76 (Isomer B)]",≥ 3000 nM
15,"C=CC(=O)N1CCN(c2c(S(C)(=O)=O)c(=O)n(-c3c(C)ccnc3C(C)C)c3c(F)c(-c4c(O)cccc4F)c(Cl)cc23)CC1 (single isomer, unassigned) [176 (Isomer A), 4-(4-acryloylpiperazin-1-yl)-6-chloro-8-fluoro-7-(2-fluoro-6-hydroxyphenyl)-1-(2-isopropyl-4-methylpyridin-3-yl)-3-(methylsulfonyl)quinolin-2(1H)-one]",≥ 3000 nM
16,"C=CC(=O)N1CCN(c2c(S(C)(=O)=O)c(=O)n(-c3c(C)ccnc3C(C)C)c3nc(-c4c(O)cccc4F)c(F)cc23)CC1 (single isomer, unassigned) [123 (Isomer B), 4-(4-acryloylpiperazin-1-yl)-6-fluoro-7-(2-fluoro-6-hydroxyphenyl)-1-(2-isopropyl-4-methylpyridin-3-yl)-3-(methylsulfonyl)-1,8-naphthyridin-2(1H)-one]",300 to 3000 nM
17,"C=CC(=O)N1CCN(c2c(S(C)(=O)=O)c(=O)n(-c3c(C)ccnc3C(C)C)c3nc(-c4cccc5sc(N)nc45)c(F)cc23)C[C@H]1C (single isomer, unassigned) [249 (Isomer B)]",300 to 3000 nM
18,"C=CC(=O)N1CCN(c2c(S(C)(=O)=O)c(=O)n(-c3c(C)ccnc3C(C)C)c3c(F)c(-c4cccc5sc(N)nc45)c(Cl)cc23)CC1 (single isomer, unassigned) [252 (Isomer A), 4-(4-acryloylpiperazin-1-yl)-7-(2-aminobenzo[d]thiazol-4-yl)-6-chloro-8-fluoro-1-(2-isopropyl-4-methylpyridin-3-yl)-3-(methylsulfonyl)quinolin-2(1H)-one]",≤ 300 nM
19,"C=CC(=O)N1CCC(n2c(=O)c(=O)n(-c3c(C)ccnc3C(C)C)c3nc(-c4c(O)cccc4F)c(F)cc32)C(C)C1 (single isomer, unassigned) [294 (Isomer A), 1-(1-acryloyl-3-methylpiperidin-4-yl)-7-fluoro-6-(2-fluoro-6-hydroxyphenyl)-4-(2-isopropyl-4-methylpyridin-3-yl)-1,4-dihydropyrido[2,3-b]pyrazine-2,3-dione]",≥ 3000 nM
20,"C=CC(=O)N1CCN(c2c(S(C)(=O)=O)c(=O)n(-c3c(C)ccnc3C(C)C)c3c(F)c(-c4c(O)cccc4F)c(Cl)cc23)CC1 (single isomer, unassigned) [176 (Isomer B), 4-(4-acryloylpiperazin-1-yl)-6-chloro-8-fluoro-7-(2-fluoro-6-hydroxyphenyl)-1-(2-isopropyl-4-methylpyridin-3-yl)-3-(methylsulfonyl)quinolin-2(1H)-one]",≤ 300 nM
21,"C=CC(=O)N1CCN(c2c(S(C)(=O)=O)c(=O)n(-c3c(C)ccnc3C(C)C)c3c(F)c(-c4c(C)ccc5[nH]ncc45)c(Cl)cc23)CC1 (single isomer, unassigned) [187 (Isomer B), 4-(4-acryloylpiperazin-1-yl)-6-chloro-8-fluoro-1-(2-isopropyl-4-methylpyridin-3-yl)-7-(5-methyl-1H-indazol-4-yl)-3-(methylsulfonyl)quinolin-2(1H)-one]",≤ 300 nM
22,"C=CC(=O)N1CCN(c2c(S(C)(=O)=O)c(=O)n(-c3c(C)ccnc3C(C)C)c3c(F)c(-c4cccc5sc(N)nc45)c(Cl)cc23)CC1 (single isomer, unassigned) [252 (Isomer B), 4-(4-acryloylpiperazin-1-yl)-7-(2-aminobenzo[d]thiazol-4-yl)-6-chloro-8-fluoro-1-(2-isopropyl-4-methylpyridin-3-yl)-3-(methylsulfonyl)quinolin-2(1H)-one]",≤ 300 nM
23,"C=CC(=O)N1CCN(c2c(S(C)(=O)=O)c(=O)n(-c3c(C)ccnc3C(C)C)c3nc(-c4c(O)cccc4F)c(F)cc23)C[C@@H]1CC#N (single isomer, unassigned) [135 (Isomer A)]",≥ 3000 nM
